According to patent US20250129062A1, “AMORPHOUS SUBSTANCES, CRYSTALS, PHARMACEUTICAL COMPOSITIONS, PREPARATION METHODS AND USES OF THIOHYDANTOIN COMPOUND OR PHARMACEUTICALLY ACCEPTABLE SALT THEREOF” (SUZHOU KINTOR PHARMACEUTICALS, INC., priority 2021, published 2025):
Converted amounts (≈) assume the structure as drawn. Where two headings read alike, the source gives them in different places.

Tests used:
[1] = Solubility of amorphous substance in solvent systems (supersaturated solution, oscillated 24 h at room temperature, HPLC); assay type: physicochemical; settings: for solubility at 24 h: thermodynamic from solid
Method: The amorphous substance of the compound of formula I was prepared into supersaturated solutions with different solvents, and oscillated under a room temperature condition (a constant temperature). After oscillating for 24 h, sampling was performed, and the content of the sample was detected by HPLC under condition 1.
Condition 1: • Chromatographic column: C18 (150 mm×4.6 mm×3.5 μm); • Mobile phase: binary mobile phase system, mobile phase A was 0.1% formic acid in water, mobile phase B was acetonitrile; • Elution time: 68 min; • Elution mode: gradient elution (in the gradient elution process, mobile phase A had the maximum volume percentage of 95% and the minimum volume percentage of 10%); • Detection wavelength: 270 nm.

[2] = High temperature stability experiment of amorphous substance (60° C.); assay type: physicochemical; settings: 60° C. in the dark
Method: The amorphous substance of the compound of formula I prepared in example 1 was stored at 60° C. in the dark for 30 days, and the purity percentages were detected by HPLC on day 0, day 5, day 10 and day 30, respectively.

Cc1ncsc1-c1ccc(CNC(=O)[C@@H]2C[C@@H](O)CN2C(=O)[C@@H](NC(=O)COCCCCOc2ccc(-c3ccc(N4C(=S)N(c5ccc(C#N)c(C(F)(F)F)c5F)C(=O)C4(C)C)cn3)cc2)C(C)(C)C)cc1
solubility at 24 h ([1]; dehydrated alcohol-propylene glycol-water solvent mixture, aqueous with cosolvent or surfactant or cyclodextrin, Dehydrated alcohol 35%-propylene glycol 50%-water 15% (w/w), read-out: Solubility): > 189000 µg/mL | solubility at 24 h ([1]; dehydrated alcohol-propylene glycol-water solvent mixture, aqueous with cosolvent or surfactant or cyclodextrin, Dehydrated alcohol 40%-propylene glycol 10%-water 50% (w/w), read-out: Solubility): 3020 µg/mL (≈ 2.89 mM) | solubility at 24 h ([1]; dehydrated alcohol-propylene glycol-water solvent mixture, aqueous with cosolvent or surfactant or cyclodextrin, Dehydrated alcohol 40%-propylene glycol 20%-water 40% (w/w), read-out: Solubility): 19500 µg/mL (≈ 18.7 mM) | solubility at 24 h ([1]; dehydrated alcohol-propylene glycol-water solvent mixture, aqueous with cosolvent or surfactant or cyclodextrin, Dehydrated alcohol 40%-propylene glycol 30%-water 30% (w/w), read-out: Solubility): 49800 µg/mL (≈ 47.7 mM) | solubility at 24 h ([1]; dehydrated alcohol-propylene glycol-water solvent mixture, aqueous with cosolvent or surfactant or cyclodextrin, Dehydrated alcohol 40%-propylene glycol 40%-water 20% (w/w), read-out: Solubility): > 97600 µg/mL | solubility at 24 h ([1]; dehydrated alcohol-propylene glycol-water solvent mixture, aqueous with cosolvent or surfactant or cyclodextrin, Dehydrated alcohol 50%-propylene glycol 10%-water 40% (w/w), read-out: Solubility): 77700 µg/mL (≈ 74.5 mM) | solubility at 24 h ([1]; dehydrated alcohol-propylene glycol-water solvent mixture, aqueous with cosolvent or surfactant or cyclodextrin, Dehydrated alcohol 50%-propylene glycol 20%-water 30% (w/w), read-out: Solubility): > 77500 µg/mL | solubility at 24 h ([1]; dehydrated alcohol-propylene glycol-water solvent mixture, aqueous with cosolvent or surfactant or cyclodextrin, Dehydrated alcohol 50%-propylene glycol 30%-water 20% (w/w), read-out: Solubility): > 69300 µg/mL | solubility at 24 h ([1]; dehydrated alcohol-propylene glycol-water solvent mixture, aqueous with cosolvent or surfactant or cyclodextrin, Dehydrated alcohol 50%-propylene glycol 40%-water 10% (w/w), read-out: Solubility): > 67800 µg/mL | solubility at 24 h ([1]; dehydrated alcohol-propylene glycol-water solvent mixture, organic solvent or mixture, Dehydrated alcohol 50%-propylene glycol 50%-water 00% (w/w), read-out: Solubility): > 96000 µg/mL | solubility at 24 h ([1]; glycerin, organic solvent or mixture, solvent: Glycerin, read-out: 24 h solubility): 440 µg/mL (≈ 0.422 mM) | solubility at 24 h ([1]; liquid paraffin, oil or lipid, solvent: Liquid paraffin, read-out: 24 h solubility): 10 µg/mL (≈ 0.00959 mM) | solubility at 24 h ([1]; oleic acid, oil or lipid, solvent: Oleic acid, read-out: 24 h solubility): 1410 µg/mL (≈ 1.35 mM) | solubility at 24 h ([1]; polyethylene glycol 400 (PEG400), organic solvent or mixture, solvent: Polyethylene glycol 400 (PEG400), read-out: 24 h solubility): 16000 µg/mL (≈ 15.4 mM) | solubility at 24 h ([1]; propylene glycol, organic solvent or mixture, solvent: Propylene glycol, read-out: 24 h solubility): 12000 µg/mL (≈ 11.5 mM) | solubility at 24 h ([1]; solvent mixture, aqueous with cosolvent or surfactant or cyclodextrin, Dehydrated alcohol 10%-PEG400 30%-water 60% (w/w), read-out: Solubility): 60 µg/mL (≈ 0.0575 mM) | solubility at 24 h ([1]; solvent mixture, aqueous with cosolvent or surfactant or cyclodextrin, Dehydrated alcohol 10%-PEG400 40%-water 50% (w/w), read-out: Solubility): 280 µg/mL (≈ 0.268 mM) | solubility at 24 h ([1]; solvent mixture, aqueous with cosolvent or surfactant or cyclodextrin, Dehydrated alcohol 10%-glycerin 10%-water 80% (w/w), read-out: Solubility): < 100 µg/mL | solubility at 24 h ([1]; solvent mixture, aqueous with cosolvent or surfactant or cyclodextrin, Dehydrated alcohol 10%-glycerin 20%-water 70% (w/w), read-out: Solubility): < 100 µg/mL | solubility at 24 h ([1]; solvent mixture, aqueous with cosolvent or surfactant or cyclodextrin, Dehydrated alcohol 10%-glycerin 30%-water 60% (w/w), read-out: Solubility): < 100 µg/mL | solubility at 24 h ([1]; solvent mixture, aqueous with cosolvent or surfactant or cyclodextrin, Dehydrated alcohol 20%-glycerin 10%-water 70% (w/w), read-out: Solubility): < 100 µg/mL | solubility at 24 h ([1]; solvent mixture, aqueous with cosolvent or surfactant or cyclodextrin, Dehydrated alcohol 20%-glycerin 20%-water 60% (w/w), read-out: Solubility): < 100 µg/mL | solubility at 24 h ([1]; solvent mixture, aqueous with cosolvent or surfactant or cyclodextrin, Dehydrated alcohol 20%-glycerin 30%-water 50% (w/w), read-out: Solubility): < 100 µg/mL | solubility at 24 h ([1]; solvent mixture, aqueous with cosolvent or surfactant or cyclodextrin, Dehydrated alcohol 20%-glycerin 40%-water 40% (w/w), read-out: Solubility): < 100 µg/mL | solubility at 24 h ([1]; solvent mixture, aqueous with cosolvent or surfactant or cyclodextrin, Dehydrated alcohol 20%-glycerin 50%-water 30% (w/w), read-out: Solubility): < 100 µg/mL | solubility at 24 h ([1]; solvent mixture, aqueous with cosolvent or surfactant or cyclodextrin, Dehydrated alcohol 30%-glycerin 10%-water 60% (w/w), read-out: Solubility): 80 µg/mL (≈ 0.0767 mM) | solubility at 24 h ([1]; solvent mixture, aqueous with cosolvent or surfactant or cyclodextrin, Dehydrated alcohol 30%-glycerin 20%-water 50% (w/w), read-out: Solubility): 140 µg/mL (≈ 0.134 mM) | solubility at 24 h ([1]; solvent mixture, aqueous with cosolvent or surfactant or cyclodextrin, Dehydrated alcohol 30%-glycerin 30%-water 40% (w/w), read-out: Solubility): 650 µg/mL (≈ 0.623 mM) | solubility at 24 h ([1]; solvent mixture, aqueous with cosolvent or surfactant or cyclodextrin, Dehydrated alcohol 30%-glycerin 40%-water 30% (w/w), read-out: Solubility): 2260 µg/mL (≈ 2.17 mM) | solubility at 24 h ([1]; solvent mixture, aqueous with cosolvent or surfactant or cyclodextrin, Dehydrated alcohol 30%-glycerin 50%-water 20% (w/w), read-out: Solubility): 4080 µg/mL (≈ 3.91 mM) | solubility at 24 h ([1]; solvent mixture, aqueous with cosolvent or surfactant or cyclodextrin, Dehydrated alcohol 40%-glycerin 10%-water 50% (w/w), read-out: Solubility): 1580 µg/mL (≈ 1.51 mM) | solubility at 24 h ([1]; solvent mixture, aqueous with cosolvent or surfactant or cyclodextrin, Dehydrated alcohol 40%-glycerin 20%-water 40% (w/w), read-out: Solubility): 3400 µg/mL (≈ 3.26 mM) | solubility at 24 h ([1]; solvent mixture, aqueous with cosolvent or surfactant or cyclodextrin, Dehydrated alcohol 40%-glycerin 30%-water 30% (w/w), read-out: Solubility): 8840 µg/mL (≈ 8.47 mM) | solubility at 24 h ([1]; solvent mixture, aqueous with cosolvent or surfactant or cyclodextrin, Dehydrated alcohol 40%-glycerin 40%-water 20% (w/w), read-out: Solubility): 14700 µg/mL (≈ 14.1 mM) | solubility at 24 h ([1]; solvent mixture, aqueous with cosolvent or surfactant or cyclodextrin, Dehydrated alcohol 40%-glycerin 50%-water 10% (w/w), read-out: Solubility): 40000 µg/mL (≈ 38.4 mM) | solubility at 24 h ([1]; solvent mixture, aqueous with cosolvent or surfactant or cyclodextrin, Dehydrated alcohol 50%-PEG400 10%-water 40% (w/w), read-out: Solubility): 25100 µg/mL (≈ 24.1 mM) | solubility at 24 h ([1]; solvent mixture, aqueous with cosolvent or surfactant or cyclodextrin, Dehydrated alcohol 50%-PEG400 20%-water 30% (w/w), read-out: Solubility): > 51500 µg/mL | solubility at 24 h ([1]; solvent mixture, aqueous with cosolvent or surfactant or cyclodextrin, Dehydrated alcohol 50%-glycerin 10%-water 40% (w/w), read-out: Solubility): 15200 µg/mL (≈ 14.5 mM) | solubility at 24 h ([1]; solvent mixture, aqueous with cosolvent or surfactant or cyclodextrin, Dehydrated alcohol 50%-glycerin 20%-water 30% (w/w), read-out: Solubility): 23900 µg/mL (≈ 22.9 mM) | solubility at 24 h ([1]; solvent mixture, aqueous with cosolvent or surfactant or cyclodextrin, Dehydrated alcohol 50%-glycerin 30%-water 20% (w/w), read-out: Solubility): > 43600 µg/mL | solubility at 24 h ([1]; solvent mixture, aqueous with cosolvent or surfactant or cyclodextrin, Dehydrated alcohol 50%-glycerin 40%-water 10% (w/w), read-out: Solubility): > 64600 µg/mL | solubility at 24 h ([1]; solvent mixture, organic solvent or mixture, Dehydrated alcohol 50%-glycerin 50%-water 00% (w/w), read-out: Solubility): > 74100 µg/mL | 24 h solubility ([1]; solvent: Dehydrated alcohol): >54480 µg/mL | 24 h solubility ([1]; solvent: Liquid paraffin, listed as amorphous substance of the compound of formula I): extremely low | 24 h solubility ([1]; solvent: Water, listed as amorphous substance of the compound of formula I): basically insoluble | Purity % ([2]; 0 day): 99.35% | Purity % ([2]; 5 days): 99.34% | Purity % ([2]; 10 days): 99.27% | Purity % ([2]; 30 days): 99.34%
